Paper PMC12467068, “Design, Synthesis, and Computational Insights into PKMYT1 Inhibitors for the Treatment of Breast Cancer” (Biomedicines, 2025)

How the values were obtained:
PKMYT1 = biological target: T1, PKMYT1 (Homo sapiens, UniProt Q99640); test: PKMYT1 enzyme inhibition assay (LanthaScreen Eu kinase binding method); conditions: mean of two separate experiments
T1 sequence (Q99640 1-499): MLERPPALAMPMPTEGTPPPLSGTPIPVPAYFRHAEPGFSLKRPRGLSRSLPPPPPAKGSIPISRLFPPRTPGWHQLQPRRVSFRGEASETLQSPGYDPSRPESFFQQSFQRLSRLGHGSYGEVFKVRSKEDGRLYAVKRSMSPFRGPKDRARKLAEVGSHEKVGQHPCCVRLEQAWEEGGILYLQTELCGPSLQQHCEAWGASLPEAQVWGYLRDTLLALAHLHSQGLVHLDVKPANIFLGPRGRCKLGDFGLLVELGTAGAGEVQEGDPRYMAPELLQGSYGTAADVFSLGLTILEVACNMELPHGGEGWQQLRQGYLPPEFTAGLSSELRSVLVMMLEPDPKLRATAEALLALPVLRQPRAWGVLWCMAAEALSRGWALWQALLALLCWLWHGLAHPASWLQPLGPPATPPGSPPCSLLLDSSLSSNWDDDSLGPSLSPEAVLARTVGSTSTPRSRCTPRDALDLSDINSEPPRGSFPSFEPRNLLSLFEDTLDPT
Protocol: The PKMYT1 kinase assay was conducted with the LanthaScreen™ Eu kinase binding method, as provided by Thermo Fisher Scientific (Waltham, MA, USA). Initially, compounds were prepared at a concentration of 4 mM in DMSO and subsequently diluted to various concentrations in 1X buffer. […] The plate was then incubated in the dark at 25 °C for 1 h, and fluorescence signals were recorded at 665 nm and 615 nm.

HCC1569 cells = test: Cell proliferation assay (CCK-8), HCC1569; type: cell-based; conditions: for IC50: Homo sapiens, HCC1569, 120 h, CCNE1-amplified breast cancer cells, 5-day incubation, mean ± SD, n = 3
Protocol: (§1) HCC1569 and OVCAR3 cells (2 × 10^3/well) were seeded in 96-well plates and cultured for 24 h at 37 °C, 5% CO2. Compounds at varying concentrations were added, followed by 5-day incubation. Cell viability was assessed using Cell Counting Kit-8 (CCK-8) with absorbance measurement at 450 nm. HCC1569 (BNCC341698) was purchased from BNCC and OVCAR3 (CL-0178) was purchased from Procell.

OVCAR3 cells = test: Cell proliferation assay (CCK-8), OVCAR3; type: cell-based; conditions: for IC50: Homo sapiens, OVCAR-3, 120 h, CCNE1-amplified ovarian cancer cells, 5-day incubation, mean ± SD, n = 3
Protocol: as §1

A549 cells = test: Anti-proliferative activity in low-expressing CCNE1 cells A549; type: cell-based; conditions: Homo sapiens, A549; lung cancer cells, low CCNE1 expression; mean ± SD, n = 3
BEAS-2B cells = test: Anti-proliferative activity in normal lung epithelial cells BEAS-2B; type: cell-based; conditions: Homo sapiens, BEAS-2B; lung epithelial cells; mean ± SD, n = 3

| Compound | IC50 (PKMYT1) | IC50 (HCC1569 cells) | IC50 (OVCAR3 cells) | also measured |
| --- | --- | --- | --- | --- |
| Cc1ccc(O)c(C)c1NC(=O)c1cnc(Nc2ccccc2)nc1 [Compound M1] | 0.22 µM | – | – | – |
| Cc1ccc(O)c(C)c1NC(=O)c1cnc(Nc2ccccc2)nc1N [MY-1, 4-amino-2-(phenylamino)-N-(3-hydroxy-2,6-dimethylphenyl)pyrimidine-5-carboxamide] | 0.026 µM | – | – | – |
| Cc1ccc(O)c(C)c1NC(=O)c1cnc(Nc2ccccc2Cl)nc1N [MY-2, 4-amino-2-((2-chlorophenyl)amino)-N-(3-hydroxy-2,6-dimethylphenyl)pyrimidine-5-carboxamide] | 0.15 µM | – | – | – |
| Cc1ccc(O)c(C)c1NC(=O)c1cnc(Nc2cccc(Cl)c2)nc1N [MY-3, 4-amino-2-((3-chlorophenyl)amino)-N-(3-hydroxy-2,6-dimethylphenyl)pyrimidine-5-carboxamide] | 0.017 µM | – | – | – |
| Cc1ccc(O)c(C)c1NC(=O)c1cnc(Nc2ccc(Cl)cc2)nc1N [MY-4, 4-amino-2-((4-chlorophenyl)amino)-N-(3-hydroxy-2,6-dimethylphenyl)] | 0.016 µM | – | – | – |
| Cc1ccc(O)c(C)c1NC(=O)c1cnc(Nc2ccc(F)cc2)nc1N [MY-5, 4-amino-2-((4-fluorophenyl)amino)-N-(3-hydroxy-2,6-dimethylphenyl)pyrimidine-5-carboxamide] | 0.02 µM | – | – | – |
| Cc1ccc(O)c(C)c1NC(=O)c1cnc(Nc2ccc(Br)cc2)nc1N [MY-6, 4-amino-2-((4-bromophenyl)amino)-N-(3-hydroxy-2,6-dimethylphenyl)pyrimidine-5-carboxamide] | 0.036 µM | – | – | – |
| Cc1ccc(Nc2ncc(C(=O)Nc3c(C)ccc(O)c3C)c(N)n2)cc1 [MY-7, 4-amino-2-(p-tolylamino)-N-(3-hydroxy-2,6-dimethylphenyl)pyrimidine-5-carboxamide] | 0.028 µM | – | – | – |
| Cc1ccc(O)c(C)c1NC(=O)c1cnc(Nc2ccc(C(C)C)cc2)nc1N [MY-8, 4-amino-2-((4-isopropylphenyl)amino)-N-(3-hydroxy-2,6-dimethylphenyl)pyrimidine-5-carboxamide] | 0.046 µM | – | – | – |
| Cc1ccc(O)c(C)c1NC(=O)c1cnc(Nc2ccc(-c3ccccc3)cc2)nc1N [MY-9, 4-amino-2-([1,1′-biphenyl]-4-ylamino)-N-(3-hydroxy-2,6-dimethylphenyl)pyrimidine-5-carboxamide] | 0.032 µM | – | – | – |
| Cc1ccc(O)c(C)c1NC(=O)c1cnc(Nc2ccc(N3CCOCC3)cc2)nc1N [MY-10, 4-amino-2-((4-morpholinophenyl)amino)-N-(3-hydroxy-2,6-dimethylphenyl)pyrimidine-5-carboxamide] | 0.0086 µM | 2.95 ± 0.32 µM | 0.81 ± 0.06 µM | – |
| Cc1ccc(O)c(C)c1NC(=O)c1cnc(Nc2ccc(N3CCN(C)CC3)cc2)nc1N [MY-11, 4-amino-2-((4-(4-methylpiperazin-1-yl)phenyl)amino)-N-(3-hydroxy-2,6-dimethylphenyl)pyrimidine-5-carboxamide] | 0.0071 µM | 3.56 ± 0.59 µM | 2.12 ± 0.33 µM | – |
| Cc1ccc(O)c(C)c1NC(=O)c1cnc(Nc2ccc([N+](=O)[O-])cc2)nc1N [MY-12, 4-amino-2-((4-nitrophenyl)amino)-N-(3-hydroxy-2,6-dimethylphenyl)pyrimidine-5-carboxamide] | 0.0051 µM | 6.35 ± 0.31 µM | 0.74 ± 0.11 µM | – |
| Cc1ccc(O)c(C)c1NC(=O)c1cnc(Nc2ccc(P(C)(C)=O)cc2)nc1N [MY-13, 4-amino-2-((4-(dimethylphosphoryl)phenyl)amino)-N-(3-hydroxy-2,6-dimethylphenyl)pyrimidine-5-carboxamide] | 0.0079 µM | > 8 µM | > 8 µM | anti-proliferative activity (in words) (HCC1569 cells; HCC1569): complete loss of activity; anti-proliferative activity (in words) (OVCAR3 cells; OVCAR3): complete loss of activity |
| Cc1ccc(O)c(C)c1NC(=O)c1cnc(Nc2ccc(C(=O)N(C)C)cc2)nc1N [MY-15, 4-amino-2-((4-(dimethylcarbamoyl)phenyl)amino)-N-(3-hydroxy-2,6-dimethylphenyl)pyrimidine-5-carboxamide] | 0.015 µM | – | – | – |
| Cc1ccc(O)c(C)c1NC(=O)c1cnc(Nc2ccc(C(=O)N3CCOCC3)cc2)nc1N [MY-16, 4-amino-2-((4-(morpholine-4-carbonyl)phenyl)amino)-N-(3-hydroxy-2,6-dimethylphenyl)pyrimidine-5-carboxamide] | 0.0061 µM | > 8 µM | 1.19 ± 0.09 µM | – |
| Cc1ccc(O)c(C)c1NC(=O)c1cnc(Nc2ccc3c(c2)CN(C)C3=O)nc1N [MY-17, 4-amino-2-((2-methyl-1-oxoisoindolin-5-yl)amino)-N-(3-hydroxy-2,6-dimethylphenyl)pyrimidine-5-carboxamide] | 0.0033 µM | > 8 µM | 0.98 ± 0.07 µM | – |
| Cc1ccc(O)c(C)c1NC(=O)c1cnc(Nc2ccc3ccoc3c2)nc1N [MY-18, 4-amino-2-(benzofuran-6-ylamino)-N-(3-hydroxy-2,6-dimethylphenyl)pyrimidine-5-carboxamide] | 0.0085 µM | 6.97 ± 1.09 µM | 3.31 ± 0.18 µM | – |
| Cc1ccc(O)c(C)c1NC(=O)c1cnc(Nc2ccc3ncsc3c2)nc1N [MY-19, 4-amino-2-(benzo[d]thiazol-6-ylamino)-N-(3-hydroxy-2,6-dimethylphenyl)pyrimidine-5-carboxamide] | 0.0035 µM | 3.14 ± 0.28 µM | 1.25 ± 0.06 µM | – |
| Cc1ccc(O)c(C)c1NC(=O)c1cnc(Nc2ccc3scnc3c2)nc1N [MY-20, 4-amino-2-(benzo[d]thiazol-5-ylamino)-N-(3-hydroxy-2,6-dimethylphenyl)pyrimidine-5-carboxamide] | 0.0057 µM | 3.54 ± 0.21 µM | 0.6 ± 0.09 µM | – |
| Cc1ccc(O)c(C)c1NC(=O)c1cnc(Nc2ccc3occc3c2)nc1N [MY-21, 4-amino-2-(benzofuran-5-ylamino)-N-(3-hydroxy-2,6-dimethylphenyl)pyrimidine-5-carboxamide] | 0.012 µM | – | – | – |
| Cc1cc2c(C(N)=O)c(N)n(-c3c(C)ccc(O)c3C)c2nc1C [RP-6306, reference compound] | – | 0.11 ± 0.02 µM | 0.09 ± 0.01 µM | IC50 (A549 cells): 1.45 ± 0.23 µM; IC50 (BEAS-2B cells): 2.6 ± 0.54 µM |
